System: P12-Ichikawa
Assay: cell viability relative to DMSO control; higher = less cytotoxic
Conditions: 48 h
In short: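 Library compounds in DMSO were pin-dosed in an 11-point threefold series (47 μM to 0.79 nM) onto leukemia cells in 1536-well plates (5 μl). Plates held 500 cells/well of NOMO1 or SEM or 1000 cells/well of P12-Ichikawa, each adapted for at least four passages in each medium. Luminescence was read with CellTiter-Glo One after 48 h at 37°C. Viability means the per-plate percentage relative to DMSO wells, using cell-free wells as background.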

[1] = HPLM + 10% dialyzed FBS, 0.000781 µM
[2] = HPLM + 10% dialyzed FBS, 0.00234 µM
[3] = HPLM + 10% dialyzed FBS, 0.00702 µM
[4] = HPLM + 10% dialyzed FBS, 0.0211 µM
[5] = HPLM + 10% dialyzed FBS, 0.0632 µM
[6] = HPLM + 10% dialyzed FBS, 0.19 µM
[7] = HPLM + 10% dialyzed FBS, 0.569 µM
[8] = HPLM + 10% dialyzed FBS, 1.71 µM
[9] = HPLM + 10% dialyzed FBS, 5.12 µM
[10] = HPLM + 10% dialyzed FBS, 15.4 µM
[11] = HPLM + 10% dialyzed FBS, 46.1 µM
[12] = RPMI 5 mM glucose + 10% FBS, 0.000781 µM
[13] = RPMI 5 mM glucose + 10% FBS, 0.00234 µM
[14] = RPMI 5 mM glucose + 10% FBS, 0.00702 µM
[15] = RPMI 5 mM glucose + 10% FBS, 0.0211 µM
[16] = RPMI 5 mM glucose + 10% FBS, 0.0632 µM
[17] = RPMI 5 mM glucose + 10% FBS, 0.19 µM
[18] = RPMI 5 mM glucose + 10% FBS, 0.569 µM
[19] = RPMI 5 mM glucose + 10% FBS, 1.71 µM
[20] = RPMI 5 mM glucose + 10% FBS, 5.12 µM
[21] = RPMI 5 mM glucose + 10% FBS, 15.4 µM
[22] = RPMI 5 mM glucose + 10% FBS, 46.1 µM
[23] = RPMI 5 mM glucose + 10% dialyzed FBS, 0.000781 µM
[24] = RPMI 5 mM glucose + 10% dialyzed FBS, 0.00234 µM
[25] = RPMI 5 mM glucose + 10% dialyzed FBS, 0.00702 µM
[26] = RPMI 5 mM glucose + 10% dialyzed FBS, 0.0211 µM
[27] = RPMI 5 mM glucose + 10% dialyzed FBS, 0.0632 µM
[28] = RPMI 5 mM glucose + 10% dialyzed FBS, 0.19 µM
[29] = RPMI 5 mM glucose + 10% dialyzed FBS, 0.569 µM
[30] = RPMI 5 mM glucose + 10% dialyzed FBS, 1.71 µM
[31] = RPMI 5 mM glucose + 10% dialyzed FBS, 5.12 µM
[32] = RPMI 5 mM glucose + 10% dialyzed FBS, 15.4 µM
[33] = RPMI 5 mM glucose + 10% dialyzed FBS, 46.1 µM

Structure (SMILES)	cell viability [1] [%]	cell viability [2] [%]	cell viability [3] [%]	cell viability [4] [%]	cell viability [5] [%]	cell viability [6] [%]	cell viability [7] [%]	cell viability [8] [%]	cell viability [9] [%]	cell viability [10] [%]	cell viability [11] [%]	cell viability [12] [%]	cell viability [13] [%]	cell viability [14] [%]	cell viability [15] [%]	cell viability [16] [%]	cell viability [17] [%]	cell viability [18] [%]	cell viability [19] [%]	cell viability [20] [%]	cell viability [21] [%]	cell viability [22] [%]	cell viability [23] [%]	cell viability [24] [%]	cell viability [25] [%]	cell viability [26] [%]	cell viability [27] [%]	cell viability [28] [%]	cell viability [29] [%]	cell viability [30] [%]	cell viability [31] [%]	cell viability [32] [%]	cell viability [33] [%]
C[C@H]1O[C@H](C[C@H](O)[C@@H]1O)O[C@H]2[C@@H](O)C[C@@H](O[C@@H]2C)O[C@H]3[C@@H](O)C[C@@H](O[C@@H]3C)O[C@H]4CC[C@@]5(C)[C@H](CC[C@@H]6[C@@H]5C[C@@H](O)[C@]7(C)[C@H](CC[C@]67O)C/8=C/C(=O)OC8)C4	116	128	123	111	33.5	13.3	12.7	12.8	14.3	20.5	17.2	115	123	124	110	86.5	58.1	12.3	10.4	9.93	12.4	11.7	113	111	117	110	76.4	32.5	13.3	10.7	8.02	8.92	6.92
CN1CCN(C(=O)O[C@H]2c3nccnc3C(=O)N2c2ccc(Cl)cn2)CC1	112	108	105	111	104	110	103	108	101	98.2	99.9	96.8	102	106	106	101	106	103	95.5	93	95.1	88	98.6	102	98.9	105	92.9	102	101	99.1	102	93.6	85.1
NC/1=N/C(=O)N(/C=N1)[C@@H]2O[C@H](CO)[C@@H](O)[C@H]2O	108	104	102	107	85.2	114	104	109	77	55.1	22.6	107	102	102	98.7	88.1	113	104	107	91.1	59	43.2	97.1	107	114	116	94.7	103	105	104	89.6	56	26.8
CNC(=O)Nc1ccc(-c2nc(N3CC4CCC(C3)O4)c3cnn(C4CCC5(CC4)OCCO5)c3n2)cc1	107	106	95.7	92.5	95.4	82.7	86.1	76.7	74.2	74.9	72.5	96.9	84.1	75.8	75.5	69.8	65.8	64.2	60.8	57.1	49.6	53	106	98	91.1	82.1	81.8	70.5	67.4	65.2	56.8	44.8	50.9
CCN1CCCC1CNC(=O)c1cc([S+](N)(=O)[O-])ccc1OC (configuration not stated)	111	115	119	108	125	121	116	118	113	120	109												107	117	121	117	126	117	124	126	124	128	117
COc1cc(C)c(Sc2cnc(NC(=O)c3ccc(CNC(C)C(C)C)cc3)s2)cc1C(=O)N1CCN(C(C)=O)CC1 (configuration not stated)	118	125	119	129	119	118	117	107	103	90.1	109																						
CO/N=C(\C(=O)N[C@@H]1C(=O)N2C(C(=O)OCOC(=O)C(C)(C)C)=C(/C=C\c3scnc3C)CS[C@H]12)c1csc(N)n1	91.7	102	105	104	108	110	106	106	110	89.8	72.4	85.6	91.6	101	99.6	101	103	96.4	103	103	75.8	60.1	92	89.6	102	91.8	104	106	99.2	98.7	102	80.9	57.2
N#C[C@H](O[C@@H]1O[C@H](CO[C@@H]2O[C@H](CO)[C@@H](O)[C@H](O)[C@H]2O)[C@@H](O)[C@H](O)[C@H]1O)c1ccccc1	110	106	108	102	103	96.6	99.5	97.7	90.8	91.7	55.4	99.5	98.5	92.5	97.5	104	99.5	94.2	88.4	89.9	94.5	48.5	98.6	96.2	95.6	101	97.6	86.1	90.6	89	82.9	87.3	31.8
NC(=O)Nc1cc(-c2cccc(F)c2)sc1C(=O)N[C@H]1CCCNC1	121	124	125	122	130	112	111	74	13.4	7.94	6.66																						
